Laboratory results: patent publication US20110105474A1, “HETEROCYCLIC DERIVATIVES AS HDAC INHIBITORS” (DAC S.r.l., priority 2008, published 2011)
Where a name gives a salt, the structure may show the parent alone.

What was measured:
Format in all cases: cell-based
A549 cells = experiment: Cell growth, CellTiter-Glo Luminescent Cell Viability Assay, A549; conditions: Homo sapiens, 72 h incubation
Source text: (§1) CellTiter-Glo® Luminescent Cell Viability Assay (Promega) is a homogeneous method of determining the number of viable cells in culture based on quantitation of the present ATP, which indicates the presence of metabolically active cells. The homogeneous assay procedure involves addition of a single reagent (CellTiter-Glo®Reagent) directly to the cells, which leads to cell lysis and generation of a luminescent signal proportional to the amount of the ATP and the number of cells present in culture. The assay relies on the properties of a proprietary thermostable luciferase (Ultra-Glo® recombinant luciferase), which generates a luminescent signal.
(§2) K562, A549 and HCT-116 cells, in exponential growth, were incubated for 72 h with different concentrations of the inhibitors. After 72 h, a volume of CellTiter-Glo® Reagent equal to the volume of cell culture medium was added. The content was mixed for 2 min to induce cell lysis. The luminescence was recorded after further 10 min at RT in order to obtain a stabilized luminescent signal.
(§3) The IC50 was calculated using GraphPad Software.
(§4) IC50 results were allocated to one of 3 ranges as follows: Range A: IC50≦1.0 μM; Range B: from 1.0 to 3.0 μM; Range C: IC50≧3.0 μM.

K562 cells = experiment: Cell growth, CellTiter-Glo Luminescent Cell Viability Assay, K562; conditions: Homo sapiens, 72 h incubation
Source text: as §1, §2, §3, §4

HCT-116 cells = experiment: Cell growth, CellTiter-Glo Luminescent Cell Viability Assay, HCT-116; conditions: Homo sapiens, 72 h incubation, read-out: IC50 HCT116
Source text: as §1, §2, §3, §4

Q: `O=C(/C=C/c1cccc(/C=C/C(=O)N2CCCC(c3ccccc3)C2)n1)NO` (racemic) [Example 25, (±)-(E)-N-Hydroxy-3-{6-[(E)-3-oxo-3-(3-phenyl-piperidin-1-yl)-propenyl]-pyridin-2-yl}-acrylamide hydrochloride] was tested. Which IC50 (A549 cells) did it give?
A: ≤ 1000 nM

Q: What about the IC50 (K562 cells) of the same compound?
A: ≤ 1000 nM

Q: And the IC50 (HCT-116 cells)?
A: ≤ 1000 nM

Q: Which IC50 (A549 cells) does the source give for `O=C(/C=C/c1cccc(/C=C/C(=O)N2CCNC(c3ccccc3)C2)n1)NO` (racemic) [Example 33, (±)-(E)-N-Hydroxy-3-{6-[(E)-3-oxo-3-(3-phenyl-piperazin-1-yl)-propenyl]-pyridin-2-yl}-acrylamide hydrochloride] here?
A: ≥ 3000 nM

Q: And the IC50 (K562 cells)?
A: 1000 to 3000 nM

Q: What about the IC50 (HCT-116 cells) of the same compound?
A: 1000 to 3000 nM

Q: Which results are given for `Cc1ccccc1C1CCCN(C(=O)/C=C/c2cccc(/C=C/C(=O)NO)n2)C1` (racemic) [Example 42, (±)-(E)-N-Hydroxy-3-{6-[(E)-3-oxo-3-(3-o-tolyl-piperidin-1-yl)-propenyl]-pyridin-2-yl}-acrylamide hydrochloride]?
A: IC50 (A549 cells): ≤ 1000 nM; IC50 (K562 cells): ≤ 1000 nM; IC50 (HCT-116 cells): 1000 to 3000 nM

Q: `Cc1cccc(C2CCCN(C(=O)/C=C/c3cccc(/C=C/C(=O)NO)n3)C2)c1` (racemic) [Example 43, (±)-(E)-N-Hydroxy-3-{6-[(E)-3-oxo-3-(3-m-tolyl-piperidin-1-yl)-propenyl]-pyridin-2-yl}-acrylamide hydrochloride] was tested. Which IC50 (A549 cells) did it give?
A: ≤ 1000 nM

Q: And the IC50 (K562 cells)?
A: ≤ 1000 nM

Q: And the IC50 (HCT-116 cells)?
A: ≤ 1000 nM

Q: For `O=C(/C=C/c1cccc(/C=C/C(=O)N2CCCC(c3cccc4ccccc34)C2)n1)NO` (racemic) [Example 44, (±)-(E)-N-Hydroxy-3-{6-[(E)-3-(3-naphthalen-1-yl-piperidin-1-yl)-3-oxo-propenyl]-pyridin-2-yl}-acrylamide hydrochloride], which IC50 (A549 cells) is on record?
A: 1000 to 3000 nM

Q: What about the IC50 (K562 cells) of the same compound?
A: ≤ 1000 nM

Q: What about the IC50 (HCT-116 cells) of the same compound?
A: ≤ 1000 nM

Q: With `Cc1ccc(C2CCCN(C(=O)/C=C/c3cccc(/C=C/C(=O)NO)n3)C2)cc1` (racemic) [Example 46, (±)-(E)-N-Hydroxy-3-{6-[(E)-3-oxo-3-(3-p-tolyl-piperidin-1-yl)-propenyl]-pyridin-2-yl}-acrylamide hydrochloride] as the compound, how does the IC50 (A549 cells) read?
A: 1000 to 3000 nM

Q: What about the IC50 (K562 cells) of the same compound?
A: ≤ 1000 nM

Q: And the IC50 (HCT-116 cells)?
A: ≤ 1000 nM

Q: Which results are given for `O=C(/C=C/c1cccc(/C=C/C(=O)N2CCCC(c3ccc4ccccc4c3)C2)n1)NO` (racemic) [Example 47, (±)-(E)-N-Hydroxy-3-{6-[(E)-3-(3-naphthalen-2-yl-piperidin-1-yl)-3-oxo-propenyl]-pyridin-2-yl}-acrylamide hydrochloride]?
A: IC50 (A549 cells): ≤ 1000 nM; IC50 (K562 cells): ≤ 1000 nM; IC50 (HCT-116 cells): ≤ 1000 nM

Q: `O=C(/C=C/c1cccc(/C=C/C(=O)N2CCCC(c3ccc(F)cc3)C2)n1)NO` (racemic) [Example 48, (±)-(E)-3-(6-{(E)-3-[3-(4-Fluoro-phenyl)-piperidin-1-yl]-3-oxo-propenyl}-pyridin-2-yl)-N-hydroxy-acrylamide hydrochloride] was tested. Which IC50 (A549 cells) did it give?
A: 1000 to 3000 nM

Q: And the IC50 (K562 cells)?
A: ≤ 1000 nM

Q: And the IC50 (HCT-116 cells)?
A: ≤ 1000 nM

Q: With `O=C(/C=C/c1cccc(/C=C/C(=O)N2CCC(c3ccccc3)C2)n1)NO` (racemic) [Example 52, (±)-(E)-N-Hydroxy-3-{6-[(E)-3-oxo-3-(3-phenyl-pyrrolidin-1-yl)-propenyl]-pyridin-2-yl}-acrylamide hydrochloride] as the compound, how does the IC50 (A549 cells) read?
A: ≥ 3000 nM

Q: And the IC50 (K562 cells)?
A: 1000 to 3000 nM

Q: What about the IC50 (HCT-116 cells) of the same compound?
A: 1000 to 3000 nM

Q: With `O=C(/C=C/c1cccc(/C=C/C(=O)N2CCCCC2c2ccccc2)n1)NO` (racemic) [Example 53, (±)-(E)-N-Hydroxy-3-{6-[(E)-3-oxo-3-(2-phenyl-piperidin-1-yl)-propenyl]-pyridin-2-yl}-acrylamide hydrochloride] as the compound, how does the IC50 (A549 cells) read?
A: 1000 to 3000 nM

Q: What about the IC50 (K562 cells) of the same compound?
A: ≤ 1000 nM

Q: What about the IC50 (HCT-116 cells) of the same compound?
A: ≤ 1000 nM

Q: How did the IC50 (A549 cells) turn out when `O=C(/C=C/c1cccc(/C=C/C(=O)N2CCCC(c3ccccc3)CC2)n1)NO` (racemic) [Example 54, (±)-(E)-N-Hydroxy-3-{6-[(E)-3-oxo-3-(4-phenyl-azepan-1-yl)-propenyl]-pyridin-2-yl}-acrylamide hydrochloride] was run?
A: 1000 to 3000 nM

Q: And the IC50 (K562 cells)?
A: ≤ 1000 nM

Q: What about the IC50 (HCT-116 cells) of the same compound?
A: ≤ 1000 nM

Q: With `CN1CCN(C(=O)/C=C/c2cccc(/C=C/C(=O)NO)n2)CC1c1ccccc1` (racemic) [Example 63, (±)-(E)-N-Hydroxy-3-{6-[(E)-3-(4-methyl-3-phenyl-piperazin-1-yl)-3-oxo-propenyl]-pyridin-2-yl}-acrylamide hydrochloride] as the compound, how does the IC50 (A549 cells) read?
A: 1000 to 3000 nM

Q: And the IC50 (K562 cells)?
A: ≤ 1000 nM

Q: What about the IC50 (HCT-116 cells) of the same compound?
A: ≤ 1000 nM

Q: Which results are given for `CCN1CCN(C(=O)/C=C/c2cccc(/C=C/C(=O)NO)n2)CC1c1ccccc1` (racemic) [Example 64, (±)-(E)-3-{6-[(E)-3-(4-Ethyl-3-phenyl-piperazin-1-yl)-3-oxo-propenyl]-pyridin-2-yl}-N-hydroxy-acrylamide hydrochloride]?
A: IC50 (A549 cells): ≤ 1000 nM; IC50 (K562 cells): ≤ 1000 nM; IC50 (HCT-116 cells): ≤ 1000 nM

Q: Which results are given for `O=C(/C=C/c1cccc(/C=C/C(=O)N2CCN(Cc3ccccc3)C(c3ccccc3)C2)n1)NO` (racemic) [Example 65, (±)-(E)-3-{6-[(E)-3-(4-Benzyl-3-phenyl-piperazin-1-yl)-3-oxo-propenyl]-pyridin-2-yl}-N-hydroxy-acrylamide hydrochloride]?
A: IC50 (A549 cells): 1000 to 3000 nM; IC50 (K562 cells): 1000 to 3000 nM; IC50 (HCT-116 cells): 1000 to 3000 nM

Q: `CC(=O)N1CCN(C(=O)/C=C/c2cccc(/C=C/C(=O)NO)n2)CC1c1ccccc1` (racemic) [Example 66, (±)-(E)-3-{6-[(E)-3-(4-Acetyl-3-phenyl-piperazin-1-yl)-3-oxo-propenyl]-pyridin-2-yl}-N-hydroxy-acrylamide hydrochloride] was tested. Which IC50 (A549 cells) did it give?
A: ≥ 3000 nM

Q: And the IC50 (K562 cells)?
A: ≥ 3000 nM

Q: What about the IC50 (HCT-116 cells) of the same compound?
A: ≥ 3000 nM

Q: What does the source list for `COc1ccccc1C1CCCN(C(=O)/C=C/c2cccc(/C=C/C(=O)NO)n2)C1` (racemic) [Example 67, (±)-(E)-N-Hydroxy-3-(6-{(E)-3-[3-(2-methoxy-phenyl)-piperidin-1-yl]-3-oxo-propenyl}-pyridin-2-yl)-acrylamide hydrochloride]?
A: IC50 (A549 cells): 1000 to 3000 nM; IC50 (K562 cells): ≤ 1000 nM; IC50 (HCT-116 cells): ≤ 1000 nM

Q: Which IC50 (A549 cells) does the source give for `COc1cccc(C2CCCN(C(=O)/C=C/c3cccc(/C=C/C(=O)NO)n3)C2)c1` (racemic) [Example 68, (±)-(E)-N-Hydroxy-3-(6-{(E)-3-[3-(3-methoxy-phenyl)-piperidin-1-yl]-3-oxo-propenyl}-pyridin-2-yl)-acrylamide hydrochloride] here?
A: ≤ 1000 nM

Q: What about the IC50 (K562 cells) of the same compound?
A: ≤ 1000 nM

Q: What about the IC50 (HCT-116 cells) of the same compound?
A: ≤ 1000 nM

Q: `COc1ccc(C2CCCN(C(=O)/C=C/c3cccc(/C=C/C(=O)NO)n3)C2)cc1` (racemic) [Example 69, (±)-(E)-N-Hydroxy-3-(6-{(E)-3-[3-(4-methoxy-phenyl)-piperidin-1-yl]-3-oxo-propenyl}-pyridin-2-yl)-acrylamide hydrochloride] was tested. Which IC50 (A549 cells) did it give?
A: ≤ 1000 nM

Q: And the IC50 (K562 cells)?
A: ≤ 1000 nM

Q: What about the IC50 (HCT-116 cells) of the same compound?
A: ≤ 1000 nM

Q: With `O=C(/C=C/c1cccc(/C=C/C(=O)N2CCCC(c3ccccc3C(F)(F)F)C2)n1)NO` (racemic) [Example 70, (±)-(E)-N-Hydroxy-3-(6-{(E)-3-oxo-3-[3-(2-trifluoromethyl-phenyl)-piperidin-1-yl]-propenyl}-pyridin-2-yl)-acrylamide hydrochloride] as the compound, how does the IC50 (A549 cells) read?
A: ≤ 1000 nM

Q: And the IC50 (K562 cells)?
A: ≤ 1000 nM

Q: What about the IC50 (HCT-116 cells) of the same compound?
A: ≤ 1000 nM

Q: Which IC50 (A549 cells) does the source give for `O=C(/C=C/c1cccc(/C=C/C(=O)N2CCCC(c3cccc(C(F)(F)F)c3)C2)n1)NO` (racemic) [Example 71, (±)-(E)-N-Hydroxy-3-(6-{(E)-3-oxo-3-[3-(3-trifluoromethyl-phenyl)-piperidin-1-yl]-propenyl}-pyridin-2-yl)-acrylamide hydrochloride] here?
A: 1000 to 3000 nM

Q: What about the IC50 (K562 cells) of the same compound?
A: ≤ 1000 nM

Q: And the IC50 (HCT-116 cells)?
A: ≤ 1000 nM

Q: Which results are given for `O=C(/C=C/c1cccc(/C=C/C(=O)N2CCCC(c3ccc(C(F)(F)F)cc3)C2)n1)NO` (racemic) [Example 72, (±)-(E)-N-Hydroxy-3-(6-{(E)-3-oxo-3-[3-(4-trifluoromethyl-phenyl)-piperidin-1-yl]-propenyl}-pyridin-2-yl)-acrylamide hydrochloride]?
A: IC50 (A549 cells): 1000 to 3000 nM; IC50 (K562 cells): ≤ 1000 nM; IC50 (HCT-116 cells): 1000 to 3000 nM

Q: With `Cc1cccc(C2CCCN(C(=O)/C=C/c3cccc(/C=C/C(=O)NO)c3)C2)c1` (racemic) [Example 78, (±)-(E)-N-Hydroxy-3-{3-[(E)-3-oxo-3-(3-m-tolyl-piperidin-1-yl)-propenyl]-phenyl}-acrylamide] as the compound, how does the IC50 (A549 cells) read?
A: ≥ 3000 nM

Q: And the IC50 (K562 cells)?
A: ≥ 3000 nM

Q: And the IC50 (HCT-116 cells)?
A: ≥ 3000 nM

Q: Which results are given for `Cc1ccccc1C1CCCN(C(=O)/C=C/c2cccc(/C=C/C(=O)NO)c2)C1` (racemic) [Example 79, (±)-(E)-N-Hydroxy-3-{3-[(E)-3-oxo-3-(3-o-tolyl-piperidin-1-yl)-propenyl]-phenyl}-acrylamide]?
A: IC50 (A549 cells): ≥ 3000 nM; IC50 (K562 cells): ≥ 3000 nM; IC50 (HCT-116 cells): ≥ 3000 nM

Q: With `Cc1ccc(C2CCCN(C(=O)/C=C/c3cccc(/C=C/C(=O)NO)c3)C2)cc1` (racemic) [Example 80, (±)-(E)-N-Hydroxy-3-{3-[(E)-3-oxo-3-(3-p-tolyl-piperidin-1-yl)-propenyl]-phenyl}-acrylamide] as the compound, how does the IC50 (A549 cells) read?
A: ≥ 3000 nM

Q: What about the IC50 (K562 cells) of the same compound?
A: ≥ 3000 nM

Q: What about the IC50 (HCT-116 cells) of the same compound?
A: ≥ 3000 nM

Q: Which results are given for `O=C(/C=C/c1cccc(/C=C/C(=O)N2CCCC(c3ccccc3)C2)c1)NO` (racemic) [Example 83, (±)-(E)-N-Hydroxy-3-{3-[(E)-3-oxo-3-(3-phenyl-piperidin-1-yl)-propenyl]-phenyl}-acrylamide]?
A: IC50 (A549 cells): ≥ 3000 nM; IC50 (K562 cells): ≥ 3000 nM; IC50 (HCT-116 cells): ≥ 3000 nM
